Measured values reported in patent US20260061037A1, “BACILLUS SPECIES STRAIN EXPRESSING SUPEROXIDE DISMUTASE, BACILLUS SPECIES STRAIN SPORE AND/OR SUPEROXIDE DISMUTASE, AND USE THEREOF FOR PREVENTING OR TREATING OF FIBROTIC DISEASE” (HLB GENEX, INC., priority 2022, published 2026).

Tests used:
[1] = tested on: nonalcoholic steatohepatitis (NASH) STAM™ animal model; type: in vivo; settings: PO, QD, GF423 1×10^7 CFU, telmisartan 10 mg/kg
Protocol: C57BL/6J mice (14-day-pregnant female, 6-week-old male) (purchased from SLC, Japan) were maintained in a SPF facility with controlled temperature (23±3° C.), humidity (50±20%), lighting (12-hour artificial light/dark cycle; light cycle from 08:00 to 20:00), and air exchange.
NASH was induced in all groups except the normal group of 8 mice as follows: On the second day after birth, the male mice were injected subcutaneously once with 200 μg streptozotocin (STZ, purchased from Sigma-Aldrich) solution. […]
The 10-week-old mice with induced NASH were randomized to 9 groups, each containing 8 mice, based on their body weight on the day before the start of treatment. […] The NASH model mice were stratified by the body weight, and the standard deviation (SD) was calculated to minimize the difference in mean body weight between the groups. […]
(§1) The GF427-administered groups were administered once a day at five dose levels: 0.05×10^7 (lowest dose), 0.1×10^7 (low dose), 0.5×10^7 (middle dose), 1×10^7 (high dose), and 5×10^7 CFU (highest dose) per mouse. […] The animals were monitored daily for viability, clinical signs (lethargy, convulsion, respiratory distress), and behavior to observe whether there are any significant clinical signs of toxicity, coma, and death before and after administration of the test substance. […]

[2] = tested on: nonalcoholic steatohepatitis (NASH) STAM™ animal model; type: in vivo
Protocol: (§2) NASH was induced in all groups except the normal group of 8 mice as follows: On the second day after birth, the male mice were injected subcutaneously once with 200 μg streptozotocin (STZ, purchased from Sigma-Aldrich) solution. After the mice reached 4 weeks of age, a solid high-fat diet (HFD, 57 kcal % fat, purchased from CLEA Japan, Inc., Cat #HFD32) was placed on a metal lid on top of the cage so that the mice access it ad libitum, thereby inducing NASH
The GF427-administered groups were administered once a day at five dose levels: 0.05×10^7 (lowest dose), 0.1×10^7 (low dose), 0.5×10^7 (middle dose), 1×10^7 (high dose), and 5×10^7 CFU (highest dose) per mouse. The GF423-administered group was administered once a day at a dose of 1×10^7 CFU per mouse. GF103 was administered once a day at a dose of 10 U per mouse. Telmisartan was administered once a day at a dose of 10 mg/kg. GF427, GF423, and GF103 were administered orally in the form of a vehicle at a dose of 100 μL, and telmisartan was administered orally in the form of being supplemented with reverse osmosis water (RO water) at a dose of 10 mL/kg. The normal and disease control groups were not subjected to any treatment before sacrifice, and were sacrificed at 13 weeks of age by exsanguination via direct cardiac puncture under isoflurane (purchased from Pfizer Inc.) anesthesia. The animals were monitored daily for viability, clinical signs (lethargy, convulsion, respiratory distress), and behavior to observe whether there are any significant clinical signs of toxicity, coma, and death before and after administration of the test substance. […] All animal care and experiments were conducted in accordance with laws and regulations related to animal welfare and management.
At sacrifice of the mice, the whole liver was collected and washed with cold saline. Photographs of the individual whole liver (parietal side and visceral side) were taken. Then, the liver weight was measured and the liver-to-body weight ratio was calculated. […]

[3] = tested on: nonalcoholic steatohepatitis (NASH) STAM™ animal model; assay: Plasma ALT level in NASH STAM model; type: in vivo, C57BL/6J mice; settings: PO, QD; GF423 1×10^7 CFU, GF103 10 U, telmisartan 10 mg/kg; vs disease control group
Protocol: as §2
as §1, with “mouse. The GF423-administered group was administered once a day at a dose of 1×10^7 CFU per mouse. GF103 was administered once a day at a dose of 10 U per mouse. Telmisartan was administered once a day at a dose of 10 mg/kg.” for “mouse.”
Plasma ALT level was measured using FUJI DRI-CHEM 7000 (purchased from Fujifilm Corporation). […]

[4] = tested on: nonalcoholic steatohepatitis (NASH) STAM™ animal model; assay: H&E staining of liver and NAFLD activity score in NASH STAM model; type: in vivo, C57BL/6J mice; settings: PO, QD; GF423 1×10^7 CFU, GF103 10 U, telmisartan 10 mg/kg; vs disease control group
Protocol: as §2
as §1, with “mouse. The GF423-administered group was administered once a day at a dose of 1×10^7 CFU per mouse. GF103 was administered once a day at a dose of 10 U per mouse. Telmisartan was administered once a day at a dose of 10 mg/kg.” for “mouse.”
The paraffin block of liver tissue prepared in Example 7.3 was sectioned using a rotary microtome (purchased from Leica Microsystems). […] The tissue slides were subjected to H&E staining and evaluated by the investigator. […]

[5] = tested on: nonalcoholic steatohepatitis (NASH) STAM™ animal model; assay: Sirius red staining of liver (fibrosis area) in NASH STAM model; type: in vivo, C57BL/6J mice; settings: PO, QD; GF423 1×10^7 CFU, GF103 10 U, telmisartan 10 mg/kg; vs disease control group
Protocol: as §2
as §1, with “(highest dose) per mouse. The GF423-administered group was administered once a day at a dose of 1×10^7 CFU per mouse.” for “(highest dose) per mouse.”
For quantitative analysis of fibrosis area, bright field images of the Sirius red-stained section were captured around the central vein using a digital camera (DFC295, purchased from Leica) at 200-fold magnification, and the positive areas in 5 fields/section were measured using ImageJ software (National Institute of Health, USA). […]

[6] = PO, QD, weeks 10 to 13, GF423 1×10^7 CFU, GF103 10 U, telmisartan 10 mg/kg, vs disease control group

CCCc1nc2c(C)cc(-c3nc4ccccc4n3C)cc2n1Cc1ccc(-c2ccccc2C(=O)O)cc1 [telmisartan, Telmisartan]
mean body weight during the treatment period ([1]; weeks 10 to 13, GF427 0.05-5×10^7 CFU, GF103 10 U, vs disease control group): significantly lower than that of the disease control group from day 17 to day 21 | mice found dead or euthanized before day 21 ([1]; 8 mice per group): two of the eight mice were euthanized | mean liver weight [2, 6]: significant decrease in mean liver weight | mean liver-to-body weight ratio [2, 6]: tended to show a decrease in mean liver-to-body weight ratio | daily mean body weight on the day of sacrifice ([2]; mouse, in vivo, po): significant decrease in daily mean body weight on the day of sacrifice | plasma ALT level [3]: tended to show a decrease in plasma ALT level | NAFLD activity score (NAS) [4]: significant decrease in NAS | fibrosis area (Sirius red-positive area) [5]: tended to decrease
